Test results reported in ChEMBL document CHEMBL3885861, “Open TG-GATES”.

Species on record: Rattus norvegicus
Experiment: Open TG-GATES - Regimen: Single
Format: toxicity, organism-based, Sprague-Dawley
Design: regimen Single, gender Male, age 6 weeks
Settings: in vivo, iv, route intravenous injection; for Bas / Eos / Hb / Ht / Lym / MCH / MCHC / MCV / Mono / Neu / Plat / RBC / Ret: tissue Blood; for KIDNEY_L / KIDNEY_R / KIDNEY_TOTAL: tissue Kidney; for ALT / AST / CRE / DBIL / GLC / K / LDH / Na / PL / RALB / TBIL / TC / TP / gamma-GTP: tissue Plasma
[1] = 0 mg/kg, 3 h, dose level Control
[2] = 0 mg/kg, 6 h, dose level Control
[3] = 0 mg/kg, 9 h, dose level Control
[4] = 0 mg/kg, 24 h, dose level Control

## CC(C)C[C@H](NC(=O)[C@H](Cc1ccccc1)NC(=O)c1cnccn1)B(O)O [BORTEZOMIB]
[1]
  TERMINAL_BW: 223 g
  Bas: 0%
  Eos: 0.8%
  Hb: 13.9 g/dL
  Ht: 39.5%
  Lym: 81.4%
  MCH: 22.9 pg
  MCHC: 35.2%
  MCV: 65.1 fL
  Mono: 2.6%
  Neu: 14.8%
  Plat: 124.1 x10_4/uL
  RBC: 607 x10_4/ul
  Ret: 9.3%
  KIDNEY_L: 0.9 g
  KIDNEY_R: 0.9 g
  KIDNEY_TOTAL: 1.9 g
  ALT: 38.6 IU/L
  AST: 70.4 IU/L
  CRE: 0.2 mg/dL
  DBIL: 0 mg/dL
  GLC: 191.2 mg/dL
  K: 3.9 meq/L
  LDH: 175.8 IU/L
  Na: 142.3 meq/L
  PL: 138.6 mg/dL
  RALB: 4.1 g/dL
  TBIL: 0.006 mg/dL
  TC: 74.6 mg/dL
  TP: 5.6 g/dL
  gamma-GTP: 0.7 IU/L
[2]
  TERMINAL_BW: 220.7 g
  Bas: 0%
  Eos: 0.4%
  Hb: 13.7 g/dL
  Ht: 38.8%
  Lym: 77.6%
  MCH: 22.1 pg
  MCHC: 35.4%
  MCV: 62.5 fL
  Mono: 2.8%
  Neu: 18.4%
  Plat: 117.1 x10_4/uL
  RBC: 622.4 x10_4/ul
  Ret: 8.7%
  KIDNEY_L: 1 g
  KIDNEY_R: 1 g
  KIDNEY_TOTAL: 2 g
  ALT: 37 IU/L
  AST: 78.8 IU/L
  CRE: 0.2 mg/dL
  DBIL: 0 mg/dL
  GLC: 176.6 mg/dL
  K: 4.4 meq/L
  LDH: 219.2 IU/L
  Na: 141.6 meq/L
  PL: 141.4 mg/dL
  RALB: 4 g/dL
  TBIL: 0.014 mg/dL
  TC: 75.4 mg/dL
  TP: 5.6 g/dL
  gamma-GTP: 0.8 IU/L
[3]
  TERMINAL_BW: 222.6 g
  Bas: 0%
  Eos: 1%
  Hb: 14 g/dL
  Ht: 40.5%
  Lym: 71%
  MCH: 22.2 pg
  MCHC: 34.5%
  MCV: 64.3 fL
  Mono: 3.4%
  Neu: 24.4%
  Plat: 108.5 x10_4/uL
  RBC: 630.2 x10_4/ul
  Ret: 9.3%
  KIDNEY_L: 1 g
  KIDNEY_R: 1 g
  KIDNEY_TOTAL: 1.9 g
  ALT: 39.8 IU/L
  AST: 78 IU/L
  CRE: 0.2 mg/dL
  DBIL: 0 mg/dL
  GLC: 179.4 mg/dL
  K: 3.9 meq/L
  LDH: 187.2 IU/L
  Na: 141.5 meq/L
  PL: 139 mg/dL
  RALB: 3.9 g/dL
  TBIL: 0.022 mg/dL
  TC: 78.6 mg/dL
  TP: 5.5 g/dL
  gamma-GTP: 0.8 IU/L
[4]
  TERMINAL_BW: 236.7 g
  Bas: 0%
  Eos: 0.6%
  Hb: 13.8 g/dL
  Ht: 38.2%
  Lym: 81.2%
  MCH: 22.9 pg
  MCHC: 36.1%
  MCV: 63.5 fL
  Mono: 3%
  Neu: 14.6%
  Plat: 113.7 x10_4/uL
  RBC: 603 x10_4/ul
  Ret: 8%
  KIDNEY_L: 1.1 g
  KIDNEY_R: 1 g
  KIDNEY_TOTAL: 2.1 g
  ALT: 42 IU/L
  AST: 74.4 IU/L
  CRE: 0.2 mg/dL
  DBIL: 0 mg/dL
  GLC: 182.4 mg/dL
  K: 4.2 meq/L
  LDH: 190.4 IU/L
  Na: 140.8 meq/L
  PL: 146.4 mg/dL
  RALB: 4 g/dL
  TBIL: 0.002 mg/dL
  TC: 74.2 mg/dL
  TP: 5.7 g/dL
  gamma-GTP: 1 IU/L
1 mg/kg, 3 h, dose level High
  TERMINAL_BW: 228.6 g
  Bas: 0%
  Eos: 0.6%
  Hb: 14.6 g/dL
  Ht: 41.1%
  Lym: 73%
  MCH: 22.6 pg
  MCHC: 35.4%
  MCV: 63.7 fL
  Mono: 2.2%
  Neu: 23.8%
  Plat: 121.1 x10_4/uL
  RBC: 645.8 x10_4/ul
  Ret: 8.6%
  KIDNEY_L: 0.9 g
  KIDNEY_R: 1 g
  KIDNEY_TOTAL: 1.9 g
  ALT: 60 IU/L
  AST: 123.6 IU/L
  CRE: 0.2 mg/dL
  DBIL: 0.008 mg/dL
  GLC: 155 mg/dL
  K: 4.2 meq/L
  LDH: 295.6 IU/L
  Na: 141.3 meq/L
  PL: 99 mg/dL
  RALB: 3.7 g/dL
  TBIL: 0.012 mg/dL
  TC: 63.6 mg/dL
  TP: 5 g/dL
  gamma-GTP: 0.8 IU/L
1 mg/kg, 6 h, dose level High
  TERMINAL_BW: 226.8 g
  Bas: 0%
  Eos: 0.2%
  Hb: 14.2 g/dL
  Ht: 39.8%
  Lym: 61%
  MCH: 22.8 pg
  MCHC: 35.7%
  MCV: 63.8 fL
  Mono: 2.2%
  Neu: 35.6%
  Plat: 113.4 x10_4/uL
  RBC: 623.4 x10_4/ul
  Ret: 8.3%
  KIDNEY_L: 1 g
  KIDNEY_R: 1 g
  KIDNEY_TOTAL: 1.9 g
  ALT: 116.4 IU/L
  AST: 191.4 IU/L
  CRE: 0.2 mg/dL
  DBIL: 0.006 mg/dL
  GLC: 148.2 mg/dL
  K: 4.4 meq/L
  LDH: 314.4 IU/L
  Na: 141.2 meq/L
  PL: 78.4 mg/dL
  RALB: 3.7 g/dL
  TBIL: 0.008 mg/dL
  TC: 44.6 mg/dL
  TP: 4.9 g/dL
  gamma-GTP: 0.6 IU/L
1 mg/kg, 9 h, dose level High
  TERMINAL_BW: 222.8 g
  Bas: 0%
  Eos: 0.8%
  Hb: 14.3 g/dL
  Ht: 40.6%
  Lym: 49%
  MCH: 23 pg
  MCHC: 35.2%
  MCV: 65.2 fL
  Mono: 2%
  Neu: 48.2%
  RBC: 622 x10_4/ul
  Ret: 8.2%
  KIDNEY_L: 1 g
  KIDNEY_R: 1 g
  KIDNEY_TOTAL: 2 g
  ALT: 122.2 IU/L
  AST: 182 IU/L
  CRE: 0.2 mg/dL
  DBIL: 0.014 mg/dL
  GLC: 150.4 mg/dL
  K: 4 meq/L
  LDH: 262 IU/L
  Na: 140.9 meq/L
  PL: 74 mg/dL
  RALB: 3.6 g/dL
  TBIL: 0.02 mg/dL
  TC: 36.2 mg/dL
  TP: 4.7 g/dL
  gamma-GTP: 0.8 IU/L
1 mg/kg, 24 h, dose level High
  TERMINAL_BW: 215.1 g
  Bas: 0%
  Eos: 0%
  Hb: 12.6 g/dL
  Ht: 35.2%
  Lym: 42%
  MCH: 23.4 pg
  MCHC: 35.8%
  MCV: 65.5 fL
  Mono: 2.7%
  Neu: 54%
  Plat: 89 x10_4/uL
  RBC: 538.3 x10_4/ul
  Ret: 5.4%
  KIDNEY_L: 1 g
  KIDNEY_R: 1 g
  KIDNEY_TOTAL: 2 g
  ALT: 163 IU/L
  AST: 368.7 IU/L
  CRE: 0.2 mg/dL
  DBIL: 0.5 mg/dL
  GLC: 134.7 mg/dL
  K: 4 meq/L
  LDH: 922.3 IU/L
  Na: 135.5 meq/L
  PL: 100.3 mg/dL
  RALB: 2.7 g/dL
  TBIL: 0.5 mg/dL
  TC: 41 mg/dL
  TP: 3.9 g/dL
  gamma-GTP: 4.3 IU/L
